According to ChEMBL document CHEMBL1145717, “Nostopeptins A and B, Elastase Inhibitors from the Cyanobacterium Nostoc minutum” (J Nat Prod, 1997):
≈ marks a conversion by molar mass, not a printed value. Calls of active or inactive are those of the source. The calls are words filed in the database; no cut-off is given here.

Assays:
[1] = Inhibition of elastase
[2] = Inhibition of chymotrypsin
Papain (Carica papaya) = molecular target: T1, Papain (Carica papaya) (UniProt P00784); assay: Inhibition of papaya papain at 100 ug/ml
T1 sequence (whole entry): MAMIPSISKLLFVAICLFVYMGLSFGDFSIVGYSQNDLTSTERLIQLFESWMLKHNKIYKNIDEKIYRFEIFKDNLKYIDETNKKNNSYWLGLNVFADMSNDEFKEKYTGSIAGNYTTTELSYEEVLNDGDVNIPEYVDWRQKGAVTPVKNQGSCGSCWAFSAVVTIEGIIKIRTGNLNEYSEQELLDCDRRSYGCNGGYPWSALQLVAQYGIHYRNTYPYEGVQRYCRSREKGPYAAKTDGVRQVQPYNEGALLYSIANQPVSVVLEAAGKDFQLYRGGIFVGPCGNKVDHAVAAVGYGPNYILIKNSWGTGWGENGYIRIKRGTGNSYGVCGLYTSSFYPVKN

[3] = Inhibition of trypsin at 100 ug/ml
[4] = molecular target: Prothrombin (Homo sapiens) (UniProt P00734); assay: Inhibition of thrombin at 100 ug/ml
[5] = molecular target: Plasminogen (Homo sapiens) (UniProt P00747); assay: Inhibition of plasmin at 100 ug/ml
Sequence of Plasminogen (Homo sapiens) (P00747 97-580 limits assumed): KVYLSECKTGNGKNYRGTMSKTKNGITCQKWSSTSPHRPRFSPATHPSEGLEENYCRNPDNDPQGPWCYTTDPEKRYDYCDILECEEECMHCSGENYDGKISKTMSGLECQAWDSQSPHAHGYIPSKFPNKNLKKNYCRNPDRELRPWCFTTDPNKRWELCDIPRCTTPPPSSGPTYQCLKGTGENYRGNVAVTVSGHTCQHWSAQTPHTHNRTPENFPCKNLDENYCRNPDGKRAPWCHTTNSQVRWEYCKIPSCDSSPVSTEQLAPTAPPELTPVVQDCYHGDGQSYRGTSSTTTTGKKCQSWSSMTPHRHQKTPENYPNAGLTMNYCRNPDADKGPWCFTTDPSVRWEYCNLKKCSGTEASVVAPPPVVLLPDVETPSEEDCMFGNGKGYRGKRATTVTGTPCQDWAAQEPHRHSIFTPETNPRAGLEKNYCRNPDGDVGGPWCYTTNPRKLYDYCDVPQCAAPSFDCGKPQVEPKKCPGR
Sequence of Plasminogen (Homo sapiens) (P00747 581-810 limits assumed): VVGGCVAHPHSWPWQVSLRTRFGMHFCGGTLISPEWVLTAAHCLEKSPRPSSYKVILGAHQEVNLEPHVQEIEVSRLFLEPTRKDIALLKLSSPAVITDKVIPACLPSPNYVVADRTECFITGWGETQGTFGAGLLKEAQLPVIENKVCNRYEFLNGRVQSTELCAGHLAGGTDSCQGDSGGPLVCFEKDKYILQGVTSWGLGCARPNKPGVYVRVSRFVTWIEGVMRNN

IC50 [1]	IC50 [2]	Activity (Papain (Carica papaya))	Activity [3]	Activity [4]	Activity [5]	SMILES
1.3 µg/mL (≈ 1.36 µM)	1.4 µg/mL (≈ 1.47 µM)	inactive	inactive	inactive	inactive	CCCC(=O)N[C@@H](CCC(N)=O)C(=O)N1CC(C)C2OC(=O)[C@H]([C@@H](C)CC)NC(=O)[C@H](Cc3ccc(O)cc3)N(C)C(=O)[C@H]([C@@H](C)CC)N3C(=O)C(CCC3O)NC(=O)[C@H](CC(C)C)NC(=O)[C@H]21 (some centres not stated) [NOSTOPEPTIN A]
11 µg/mL (≈ 11.9 µM)	1.6 µg/mL (≈ 1.73 µM)	inactive	inactive	inactive	inactive	CC[C@H](C)[C@@H]1NC(=O)[C@H](Cc2ccc(O)cc2)N(C)C(=O)[C@H]([C@@H](C)CC)N2C(=O)C(CCC2O)NC(=O)[C@H](CC(C)C)NC(=O)[C@@H]2C(OC1=O)C(C)CN2C(=O)[C@H](CCC(N)=O)NC(C)=O (some centres not stated) [NOSTOPEPTIN B]
